These results are taken from patent US9394544B2, “Ameliorating oxidative stress in neurodegenerative disease via Nox1 targeting” (University of Central Florida Research Foundation, Inc., priority 2013, dated 2016).

SMILES strings stand for the structures.

The test system of one data set is DA neurons in the rat SN. The data set is described as follows: 8-oxo-dG immunostaining in the SN of 6-OHDA-treated rats. As to conditions: striatal injection. It counts as in vivo. Here is the method: (§1) The experiments were carried out on rats, in accordance with the NIH Guide for the Care and Use of Laboratory Animals. All procedures were approved by the local Animal Care and Use Committee. Female Sprague Dawley (SD) rats (Charles River; 8-weeks-old at the time of the beginning of AAV expression or 6-OHDA treatment, 2 or 3 per cage) were maintained in a temperature/humidity-controlled environment under a 12 h light/dark cycle with free access to food and water. All rats were respectively allocated into […], Nox1 shRNA/AAV, T17N Rac1/AAV, and scramble (scb) shRNA/AAV or empty vector/AAV as control groups. Rats were deeply anesthetized (ketamine and xylazine mixture 30 mg/kg, i.p.) and placed in a rat stereotaxic apparatus, a site in the right substantia nigra (SN) [coordinate: anteroposterior (AP), −5.3 mm; mediolateral (ML), +2.0 mm; dorsoventral (DV), −5.8 mm] was selected to inject scb shRNA/AAV (n=8), Nox1 shRNA/AAV (n=16), T17N Rac1/AAV (n=16), and empty vector/AAV (n=28), respectively, according to the grouping. […]
Rats were deeply anesthetized with sodium pentobarbital (120 mg/kg) and transcardially perfused with saline containing 0.5% sodium nitrite and 10 U/ml heparin sulfate, followed by 4% cold formaldehyde generated from paraformaldehyde in 0.1 M PBS (pH 7.2). […] Mounted slices were evaluated on light microscope.

Another data set deals with SN DA neurons. Description: Stereologic counting of TH-immunostained DA neurons in the SN, 6-OHDA rat model. As to conditions: direct injection into the rat SN, in 2 weeks. It counts as in vivo. The method, then: as §1
A set consisting of six sections, 360 μm apart, were prepared. […] Numbers of TH-immunoreactive cells in the substantia nigra (SN) were counted using the optical fractionator (West 1990). […] The coefficient of error and coefficient of variation were also determined.

Turning to `NCCc1cc(O)c(O)cc1O` [6-OHDA, 6-hydroxydopamine], in the data set with DA neurons in the rat SN, the “DNA oxidative damage (8-oxo-dG immunoreactivity in the nucleus) caused by toxin” value is listed as “increased DNA oxidative damage”. Moreover, the “loss of TH-positive SNDA neurons” value in the data set with SN DA neurons is recorded as 90%-95%.
